For 19 compounds, IC50 results are on record in publication PMC4519859, “Synthesis and Biological Evaluation of Novel Dehydroabietic Acid Derivatives Conjugated with Acyl-Thiourea Peptide Moiety as Antitumor Agents” (International Journal of Molecular Sciences, 2015).

Type in all cases: cell-based
One test concerns SK-OV-3. The test can be described thus: MTT cytotoxicity assay, SK-OV-3. The settings on record: Homo sapiens, 48 h, mean ± SD, three independent experiments. As to the method:
(§1) The in vitro cytotoxic potency of DHAA acyl-thiourea derivatives 8a–8o and 9a–9o were evaluated by 3-(4,5-dimethylthiazol-2-yl)-2,5-diphenyltetrazolium bromide (MTT) assay against HeLa, SK-OV-3 and MGC-803 tumor cell lines, with 5-FU as the positive control.
(§2) General procedure for cytotoxic evaluation in vitro: HeLa, HepG2, SK-OV-3 and MGC-803 cells were seeded into 96-well microculture plates and allowed to adhere for 24 h, respectively. After cells were exposed to compounds at concentrations from 100 to 0.01 μM for 48 h, medium was aspirated and replenished with complete medium. IC50 was evaluated by MTT tetrazolium dye assay. Each experiment was performed three times; Statistical analysis: All statistical analysis was performed with SPSS Version 10 (SPSS, Chicago, IL, USA). Data was analyzed by one-way ANOVA. Mean separations were performed using the least significant difference method. Each experiment was replicated thrice, and all experiments yielded similar results. Measurements from all the replicates were combined, and treatment effects were analyzed.
On the technique in general: Formazan colour is commonly taken as a measure of viable cells.

A further test deals with HeLa. The test can be described thus: MTT cytotoxicity assay, HeLa. The settings on record: Homo sapiens, 48 h, mean ± SD, three independent experiments. As for the experimental part: as §1, §2
In another test the test system is MGC-803. The test can be described thus: MTT cytotoxicity assay, MGC-803. Conditions: Homo sapiens, 48 h, mean ± SD, three independent experiments. As to the method:
as §1, §2

In the next test the test system is HL-7702. The test can be described thus: MTT cytotoxicity assay, HL-7702 normal cells. The settings on record: L02, 48 h, normal human cells, mean ± SD, three independent experiments. As to the method:
[The source words this procedure for another cell line and reports this cell line under the same test.] as §1, §2

The term IC50 denotes the concentration that inhibits the measured activity by half. High values mean weaker potency, low ones greater potency.

As to `O=c1[nH]cc(F)c(=O)[nH]1` [Compound 5-FU, 5-fluorouracil, reference compound], the 50% inhibitory concentration (IC50) in the test on SK-OV-3 was found to be 30.2 ± 1.13 µM; with HeLa, 36.6 ± 1.55 µM; in the test on MGC-803, 34.9 ± 1.75 µM.
As to `CC(C)c1ccc2c(c1)CCC1[C@](C)(C(=O)NC(=S)N[C@H](C)C(=O)Nc3ccccc3)CCC[C@]21C` (stereo partly drawn) [Compound 8a, (1R,4aS)-7-Isopropyl-1,4a-dimethyl-N-(((R)-1-oxo-1-(phenylamino)propan-2-yl)carbamothioyl)-1,2,3,4,4a,9,10,10a-octahydrophenanthrene-1-carboxamide], the IC50 in the test with HL-7702 stood at 47.6 ± 2.43 µM; with SK-OV-3 it was 26.5 ± 2.53 µM; with HeLa it was 31.1 ± 2.13 µM; in the test on MGC-803, 28.5 ± 1.79 µM.
In the case of `Cc1ccccc1NC(=O)[C@@H](C)NC(=S)NC(=O)[C@]1(C)CCC[C@]2(C)c3ccc(C(C)C)cc3CCC12` (stereo partly drawn) [Compound 8b, (1R,4aS)-7-Isopropyl-1,4a-dimethyl-N-(((R)-1-oxo-1-(o-tolylamino)propan-2-yl)carbamothioyl)-1,2,3,4,4a,9,10,10a-octahydrophenanthrene-1-carboxamide], the half-inhibitory concentration (IC50) was 52.5 ± 1.25 µM with HL-7702, 42.8 ± 1.42 µM in the test with SK-OV-3, 29.2 ± 2.43 µM with HeLa and 19.2 ± 1.66 µM in the test with MGC-803.
Take `Cc1ccc(NC(=O)[C@@H](C)NC(=S)NC(=O)[C@]2(C)CCC[C@]3(C)c4ccc(C(C)C)cc4CCC23)cc1` (stereo partly drawn) [Compound 8c, (1R,4aS)-7-Isopropyl-1,4a-dimethyl-N-(((R)-1-oxo-1-(p-tolylamino)propan-2-yl)carbamothioyl)-1,2,3,4,4a,9,10,10a-octahydrophenanthrene-1-carboxamide]: the IC50 with HL-7702 is 61.7 ± 3.41 µM; in the test with SK-OV-3, 50.9 ± 4.11 µM; in the test on HeLa, 38.7 ± 3.65 µM; in the test on MGC-803, 24.9 ± 1.64 µM.
The corresponding values for `CC(C)c1ccc2c(c1)CCC1[C@](C)(C(=O)NC(=S)N[C@H](C)C(=O)Nc3ccccc3Cl)CCC[C@]21C` (stereo partly drawn) [Compound 8d, (1R,4aS)-N-(((R)-1-((2-Chlorophenyl)amino)-1-oxopropan-2-yl)carbamothioyl)-7-isopropyl-1,4a-dimethyl-1,2,3,4,4a,9,10,10a-octahydrophenanthrene-1-carboxamide] are 69.4 ± 4.23 µM, 48.3 ± 4.21 µM, 19.7 ± 1.23 µM and 20.6 ± 1.57 µM.
In the same order, the values of `CC(C)c1ccc2c(c1)CCC1[C@](C)(C(=O)NC(=S)N[C@H](C)C(=O)Nc3ccc(Cl)cc3)CCC[C@]21C` (stereo partly drawn) [Compound 8e, (1R,4aS)-N-(((R)-1-((4-Chlorophenyl)amino)-1-oxopropan-2-yl)carbamothioyl)-7-isopropyl-1,4a-dimethyl-1,2,3,4,4a,9,10,10a-octahydrophenanthrene-1-carboxamide] are 57.7 ± 3.66 µM, 36.1 ± 3.28 µM, 36.1 ± 3.31 µM and 21.7 ± 1.69 µM.
The corresponding values for `COc1ccccc1NC(=O)[C@@H](C)NC(=S)NC(=O)[C@]1(C)CCC[C@]2(C)c3ccc(C(C)C)cc3CCC12` (stereo partly drawn) [Compound 8f, (1R,4aS)-7-Isopropyl-N-(((R)-1-((2-methoxyphenyl)amino)-1-oxopropan-2-yl)carbamothioyl)-1,4a-dimethyl-1,2,3,4,4a,9,10,10a-octahydrophenanthrene-1-carboxamide] are 44.7 ± 3.34 µM, 23 ± 3.01 µM, 28.1 ± 2.11 µM and 17.9 ± 1.73 µM.
With `COc1ccc(NC(=O)[C@@H](C)NC(=S)NC(=O)[C@]2(C)CCC[C@]3(C)c4ccc(C(C)C)cc4CCC23)cc1` (stereo partly drawn) [Compound 8g, (1R,4aS)-7-Isopropyl-N-(((R)-1-((4-methoxyphenyl)amino)-1-oxopropan-2-yl)carbamothioyl)-1,4a-dimethyl-1,2,3,4,4a,9,10,10a-octahydrophenanthrene-1-carboxamide], the IC50 in the test on HL-7702 was found to be 43.6 ± 2.43 µM; in the test with SK-OV-3, 26.8 ± 2.47 µM; in the test with HeLa, 27.4 ± 2.43 µM; in the test with MGC-803, 18.6 ± 1.72 µM.
In the case of `CC(C)c1ccc2c(c1)CCC1[C@](C)(C(=O)NC(=S)N[C@H](C)C(=O)Nc3ccccc3F)CCC[C@]21C` (stereo partly drawn) [Compound 8h, (1R,4aS)-N-(((R)-1-((2-Fluorophenyl)amino)-1-oxopropan-2-yl)carbamothioyl)-7-isopropyl-1,4a-dimethyl-1,2,3,4,4a,9,10,10a-octahydrophenanthrene-1-carboxamide], the IC50 in the test on HL-7702 was found to be 53.5 ± 2.35 µM; in the test with SK-OV-3, 31.8 ± 2.36 µM; in the test with HeLa, 23.3 ± 1.55 µM; in the test on MGC-803 it was 26.1 ± 2.37 µM.
In the same order, the values of `CC(C)c1ccc2c(c1)CCC1[C@](C)(C(=O)NC(=S)N[C@H](C)C(=O)Nc3ccc(F)cc3)CCC[C@]21C` (stereo partly drawn) [Compound 8i, (1R,4aS)-N-(((R)-1-((4-Fluorophenyl)amino)-1-oxopropan-2-yl)carbamothioyl)-7-isopropyl-1,4a-dimethyl-1,2,3,4,4a,9,10,10a-octahydrophenanthrene-1-carboxamide] are 54.5 ± 2.34 µM, 32.5 ± 2.64 µM, 30.2 ± 2.55 µM and 29.4 ± 2.77 µM.
Consider `CC(C)c1ccc2c(c1)CCC1[C@](C)(C(=O)NC(=S)N[C@H](C)C(=O)Nc3ccccc3Br)CCC[C@]21C` (stereo partly drawn) [Compound 8j, (1R,4aS)-N-(((R)-1-((2-Bromophenyl)amino)-1-oxopropan-2-yl)carbamothioyl)-7-isopropyl-1,4a-dimethyl-1,2,3,4,4a,9,10,10a-octahydrophenanthrene-1-carboxamide], for which the IC50 with HL-7702 came out at 59.6 ± 3.54 µM; in the test with SK-OV-3, 39.1 ± 3.56 µM; in the test with HeLa, 22.8 ± 1.55 µM; in the test on MGC-803, 27.9 ± 3.26 µM.
In the same order, the values of `CC(C)c1ccc2c(c1)CCC1[C@](C)(C(=O)NC(=S)N[C@H](C)C(=O)Nc3ccc(Br)cc3)CCC[C@]21C` (stereo partly drawn) [Compound 8k, (1R,4aS)-N-(((R)-1-((4-Bromophenyl)amino)-1-oxopropan-2-yl)carbamothioyl)-7-isopropyl-1,4a-dimethyl-1,2,3,4,4a,9,10,10a-octahydrophenanthrene-1-carboxamide] are 54.6 ± 3.65 µM, 40.8 ± 3.57 µM, 19 ± 1.46 µM and 30 ± 1.24 µM.
Turning to `Cc1cc(C)cc(NC(=O)[C@@H](C)NC(=S)NC(=O)[C@]2(C)CCC[C@]3(C)c4ccc(C(C)C)cc4CCC23)c1` (stereo partly drawn) [Compound 8l, (1R,4aS)-N-(((R)-1-((3,5-Dimethylphenyl)amino)-1-oxopropan-2-yl)carbamothioyl)-7-isopropyl-1,4a-dimethyl-1,2,3,4,4a,9,10,10a-octahydrophenanthrene-1-carboxamide], the IC50 came out at 55.3 ± 2.65 µM in the test with HL-7702, 33 ± 2.59 µM in the test on SK-OV-3, 18.6 ± 1.24 µM in the test on HeLa and 13.9 ± 1.32 µM in the test with MGC-803.
In the same order, the values of `CC(C)c1ccc2c(c1)CCC1[C@](C)(C(=O)NC(=S)N[C@H](C)C(=O)Nc3cccc4ccccc34)CCC[C@]21C` (stereo partly drawn) [Compound 8m, (1R,4aS)-7-Isopropyl-1,4a-dimethyl-N-(((R)-1-(naphthalen-1-ylamino)-1-oxopropan-2-yl)carbamothioyl)-1,2,3,4,4a,9,10,10a-octahydrophenanthrene-1-carboxamide] are 59.5 ± 4.65 µM, 49.4 ± 4.64 µM, 46.6 ± 4.77 µM and 36.5 ± 3.24 µM.
Consider `CC(C)c1ccc2c(c1)CCC1[C@](C)(C(=O)NC(=S)N[C@H](C)C(=O)Nc3ccccn3)CCC[C@]21C` (stereo partly drawn) [Compound 8n, (1R,4aS)-7-Isopropyl-1,4a-dimethyl-N-(((R)-1-oxo-1-(pyridin-2-ylamino)propan-2-yl)carbamothioyl)-1,2,3,4,4a,9,10,10a-octahydrophenanthrene-1-carboxamide], for which the IC50 in the test with HL-7702 stood at 48.8 ± 2.44 µM; in the test with SK-OV-3, 25.2 ± 2.43 µM; with HeLa it was 14.3 ± 1.33 µM; in the test on MGC-803, 19.3 ± 1.32 µM.
For the compound `COc1cc(NC(=O)[C@@H](C)NC(=S)NC(=O)[C@]2(C)CCC[C@]3(C)c4ccc(C(C)C)cc4CCC23)cc(OC)c1OC` (stereo partly drawn) [Compound 8o, (1R,4aS)-7-Isopropyl-1,4a-dimethyl-N-(((R)-1-oxo-1-((3,4,5-trimethoxyphenyl)amino)propan-2-yl)carbamothioyl)-1,2,3,4,4a,9,10,10a-octahydrophenanthrene-1-carboxamide], the 50% inhibitory concentration (IC50) with HL-7702 is 49.2 ± 2.65 µM; in the test on SK-OV-3, 29.6 ± 2.67 µM; in the test on HeLa, 18.1 ± 1.23 µM; in the test on MGC-803 it was 22.7 ± 1.77 µM.
Turning to `CC(C)c1ccc2c(c1)CCC1[C@](C)(C(=O)NC(=S)N[C@H](Cc3ccccc3)C(=O)Nc3ccccc3)CCC[C@]21C` (stereo partly drawn) [Compound 9a, (1R,4aS)-7-Isopropyl-1,4a-dimethyl-N-(((R)-1-oxo-3-phenyl-1-(phenylamino)propan-2-yl)carbamothioyl)-1,2,3,4,4a,9,10,10a-octahydrophenanthrene-1-carboxamide], the IC50 with HL-7702 amounted to 37.5 ± 1.44 µM; with SK-OV-3, 17 ± 1.13 µM; in the test on HeLa, 25.7 ± 2.23 µM; in the test on MGC-803, 26.6 ± 3.25 µM.
In the same order, the values of `Cc1ccccc1NC(=O)[C@@H](Cc1ccccc1)NC(=S)NC(=O)[C@]1(C)CCC[C@]2(C)c3ccc(C(C)C)cc3CCC12` (stereo partly drawn) [Compound 9b, (1R,4aS)-7-Isopropyl-1,4a-dimethyl-N-(((R)-1-oxo-3-phenyl-1-(o-tolylamino)propan-2-yl)carbamothioyl)-1,2,3,4,4a,9,10,10a-octahydrophenanthrene-1-carboxamide] are 38.6 ± 1.65 µM, 18.5 ± 1.44 µM, 17.7 ± 1.34 µM and 14.1 ± 1.12 µM.
Regarding `CC(C)c1ccc2c(c1)CC[C@H]1[C@](C)(C(=O)O)CCC[C@]21C` [DHA, dehydroabietic acid], the figures for the half-inhibitory concentration (IC50) in the test with SK-OV-3, with HeLa and in the test with MGC-803 were 87.5 ± 4.12 µM, 30.4 ± 3.45 µM and above 100 µM, respectively.
